Laboratory results published in patent publication US8026237B2, “Pyrrole derivatives as pharmaceutical agents” (Exelixis, Inc., priority 2004, dated 2011).
Converted amounts (≈) assume the structure as drawn.

Biological target: T1, human MR (GAL4-MR chimera, amino acids 671 to 984) (Homo sapiens, UniProt P08235)
T1 construct: expressed in transfected cells; host or cells: CV-1 (African Green Monkey Kidney Cells)
T1 sequence (P08235 671-984): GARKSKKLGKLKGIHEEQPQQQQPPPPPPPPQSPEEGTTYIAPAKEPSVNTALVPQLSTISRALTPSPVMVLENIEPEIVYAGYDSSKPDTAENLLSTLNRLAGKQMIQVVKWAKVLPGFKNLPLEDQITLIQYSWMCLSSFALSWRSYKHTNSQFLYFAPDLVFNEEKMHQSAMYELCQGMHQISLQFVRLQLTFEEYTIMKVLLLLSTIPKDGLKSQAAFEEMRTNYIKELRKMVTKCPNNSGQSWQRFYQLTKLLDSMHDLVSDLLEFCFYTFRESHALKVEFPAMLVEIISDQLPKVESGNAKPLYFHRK
Assay: GAL4-MR cell based assay (antagonist format)
Conditions: not given
Description: Compound activity was determined in a cell-based assay using a GAL4-MR chimera to identify compounds with the ability to modulate MR activity.
The pCMX-GAL4-MR expression plasmid was constructed by cloning nucleotides encoding amino acids 671 to 984 of human MR (see GenBank sequence AAA59571) into the vector pCMX-GAL4 (Perlmann et al., 1993,Genes & Development 7:1411-1422) comprising nucleotides encoding for amino acids 1-147 of the GAL4 DNA binding domain.
The TK-MH100x4-Luc (GAL4UAS-TK-Luciferase) reporter construct was constructed by insertion of four copies of the Gal4 UAS (Kang et al. 1993, J. Biol. Chem. 268:9629-9635) into the Hind III site of TK-Luc. The parental plasmid, TK-Luc, was prepared by insertion of the Herpes simplex virus thymidine kinase gene promoter (−105 to +51) obtained from the plasmid pBLCAT2 by digestion with HindIII and XhoI (described in Luckow et al., 1987, Nuc. Acid. Res. 15:5490) into the plasmid MMTV-LUC described by Hollenberg and Evans, 1988, Cell 55:899-906) after removal of MMTV-LTR promoter sequence from MMTV-LUC via digestion with HindIII and XhoI. Correct cloning was confirmed by restriction digestion and/or sequencing.
Assays were performed using CV-1 (African Green Monkey Kidney Cells) (ATCC) cells grown in T175 flasks at a density of 3×10^6 cells/flask in DMEM with 5% FBS. Cells were transfected one day after plating at 70-80 percent confluency with a DNA mixture containing (per T175 flask) 9 μg pCMX-GAL4-MR, 9 μg TK-MH100x4-Luc, and 2 μg pCMX β-Gal using the transfection reagent FuGENE6 (Roche Molecular Biochemicals, Indianapolis, Ind.) following recommended protocols and instructions provided by the manufacturer, and incubated with transfection reagents for 5 hours at 37° C.
Transfected cells were trypsinized, resuspended in media, and 45 μL was added to assay plates at a density of approximately 5,000 cells/well using a MultiDrop dispenser (MTX Lab Systems, Inc., VA). The assay plates containing both compounds and screening cells were incubated for approximately 20 hours at 37° C. and 5% CO2 in a tissue culture incubator.
After incubation of the transfected cells with compounds, Lysis buffer (1% Triton X-100, 10% Glycerol, 5 mM DTT, 1 mM EGTA, 25 mM Tricine, pH 7.8) and Luciferin assay buffer (0.73 mM ATP, 22.3 mM Tricine, 0.11 mM EDTA, 33.3 mM DTT, 0.2M MgSO4, 11 mM Luciferin, 6.1 mM Coenzyme A, 0.01 mM HEPES, pH 7.8) were prepared. Media was removed from the plates and lysis buffer and luciferin assay buffer mixed in a 1:1 ratio and then 30 μl of the mixture was added to each well using a Multidrop dispenser. Plates were read on the Northstar (Applied Biosystems, Foster City, Calif.) and data was analyzed using ActivityBase (ID Business Solutions, Ltd., Guildford, Surrey, UK). If required, luciferase values may be normalized for transfection efficiency by measuring β-galactosidase activity based on expression from the pCMX-Gal expression plasmid as described previously (Willy et al., 1995, Gene & Development, 9:1033-1045).

Compared with Cc1cc(C(=O)NCc2ccc(Oc3ccccc3)cc2)c(C)n1-c1ccccc1C(F)(F)F [2,5-dimethyl-1-(2-trifluoromethyl-phenyl)-1H-pyrrole-3-carboxylic acid 4-phenoxy-benzylamide], Cc1cc(C(=O)NCCc2ccccc2)c(C)n1-c1ccccc1C(F)(F)F [2,5-dimethyl-1-(2-trifluoromethyl-phenyl)-1H-pyrrole-3-carboxylic acid phenethyl-amide] is lower in IC50: 1000 to 5000 nM for the first, < 500 nM for the second. The second is the more potent here.

Cc1cc(C(=O)Nc2cc(C(F)(F)F)ccc2F)c(C)n1-c1ccccc1C(F)(F)F [2,5-dimethyl-1-(2-trifluoromethyl-phenyl)-1H-pyrrole-3-carboxylic acid (2-fluoro-5-trifluoromethyl-phenyl)-amide] and Cc1cc(C(=O)NCCc2cccc(Cl)c2)c(C)n1-c1ccccc1C(F)(F)F [2,5-dimethyl-1-(2-trifluoromethyl-phenyl)-1H-pyrrole-3-carboxylic acid [2-(3-chloro-phenyl)-ethyl]-amide] fall in the same range of IC50: 1000 to 5000 nM for the first, 1000 to 5000 nM for the second.

Cc1cc(C(=O)NCCc2cccs2)c(C)n1-c1ccccc1C(F)(F)F [2,5-dimethyl-1-(2-trifluoromethyl-phenyl)-1H-pyrrole-3-carboxylic acid (2-thiophen-2-yl-ethyl)-amide] and Cc1cc(C(=O)NCCc2ccccc2Cl)c(C)n1-c1ccccc1C(F)(F)F [2,5-dimethyl-1-(2-trifluoromethyl-phenyl)-1H-pyrrole-3-carboxylic acid [2-(2-chloro-phenyl)-ethyl]-amide] fall in the same range of IC50: 500 to 1000 nM for the first, 500 to 1000 nM for the second.

Tested on: not listed separately
Assay: Kinetic solubility assay
Conditions: pH 7.4, aqueous buffer, kinetic from dmso stock
Description: The kinetic solubility of test compounds in buffer was evaluated using a 96 well filtration plate format. A 500 μM assay solution in PBS, pH7.4 (or other assay buffer, as needed) was generated form a DMSO stock solution (up to 10 mM). Samples were transferred to a 96 Millipore MultiScreen HTS 96-well Filter plate (Cat# MSSLBPC10) mixed by shaking for 1.5 hours and processed by filtration prior to quantitation by HPLC-UV. Amiodarone and testosterone were used as reference controls.

With C[C@]12CC[C@H]3[C@@H](CCC4=CC(=O)CC[C@@]43C)[C@@H]1CC[C@@H]2O [testosterone] the solubility kinetic at 1.5 h was ~330 µM (≈ 95.2 µg/mL).
